In patent US20140179664A1, “Heterocyclyl Pyrimidine Analogues As JAK Inhibitors” (Cellzome Limited, priority 2011, published 2014) one finds IC50 data, which are given here for three molecules.

This experiment relates to STAT5 phosphorylation downstream of JAK3 in human YT cells. Briefly: pSTAT5 cell assay (IL-2 stimulated YT cells, AlphaScreen). The class given is cell-based. The settings on record: IL-2 stimulation, read-out: Inhibition values (IC50) pSTAT5. From the text:
STAT5 phosphorylation represents one of the proximal events in the signalling cascade downstream of JAK3 activation. Therefore STAT5 phosphorylation is an appropriate readout to assess the mechanistic effect of JAK3 inhibition. Stimulation of human YT cells, an NK-like cell line, with interleukin-2 (IL-2) results in phosphorylation of STAT5 at tyrosine residue 694 (Tyr694) that can be quantitatively measured by immunodetection with specific antibodies and an appropriate detection method, in this case AlphaScreen assay technology.
Human YT cells were grown in RPMI medium (Lonza, BE12-167) with 2 mM L-Glutamine (Invitrogen, 25030-024) and 10% heat-inactivated FBS (Invitrogen, 10106-169) and kept in a humidified incubator (37° C., 5% CO2). Cells were harvested by centrifugation, washed once with HBSS (Invitrogen, 14180-046), resuspended in HBSS at 1.5×10^6 cells/ml and 0.9×10^4 cells were seeded in 6 μl per well in a 96 well White plate (PerkinElmer, 6005569).
Test compounds were dissolved in DMSO and a 1:3 dilution series (9 steps) was prepared. To generate a dose response curve, 3 μl of fourfold concentrated compound in 4% DMSO/HBSS were added to each cell sample in the 96 well plate resulting in a final DMSO concentration of 1% DMSO. Cells were incubated for one hour in a humidified incubator (37° C., 5% CO2). To each well 3 μl of a fourfold concentrated IL-2 solution (Recombinant human IL-2, Peprotech 200-02; 120 nM solution in HBSS) was added and incubated for 30 minutes at room temperature. Cells were lysed by adding 3 μl of 5× lysis buffer (SureFire lysis buffer; Perkin Elmer, TGRS5S10K) and incubated for 10 minutes at room temperature with gentle shaking
For signal detection by AlphaScreen® technology the SureFire phospho-STAT5 (Tyr694/Tyr699) kit was used according to instructions provided by the manufacturer (Perkin Elmer, TGRS5S10K). Acceptor beads were added as recommended by the manufacturer (Reactivation buffer/Activation buffer/Acceptor beads at a ratio of 40:10:1) and incubated at room temperature for 1.5 hours with gentle shaking Then donor beads were added as recommended (Dilution buffer/Donor beads at a ratio of 20:1) and incubated at room temperature for 1.5 hours with gentle shaking Plates were read on an Envision instrument (Perkin Elmer) with the AlphaScreen protocol. Data were analysed in BioAssay using the nonlinear regression for a sigmoidal dose-response with a variable slope.

For orientation: IC50 means the concentration needed to halve the response being measured. Regarding `Cn1cc(Nc2ncc(Cl)c(N[C@H](CO)c3ccccc3)n2)cn1` [Compound 4], the half-maximal inhibitory concentration (IC50) lay within 250 to 1000 nM. Take `OCCn1cc(Nc2ncc(Cl)c(N[C@H](CO)c3ccccc3)n2)cn1` [Compound 9]: the 50% inhibitory concentration (IC50) fell in the range of 250 to 1000 nM. On to `OC[C@@H](Nc1nc(Nc2cnn(CC(F)F)c2)ncc1Cl)c1ccccc1F` [Compound 165], for which the IC50 is under 250 nM.
